Results reported in ChEMBL document CHEMBL5500321, “Synthesis and clinical application of small-molecule drugs approved to treat prostatic cancer” (Eur J Med Chem, 2023).
pIC50: −log10 of the molar value.

Key:
T47D = test: Antiproliferative activity against human T47D cells assessed as reduction in cell growth incubated for 48 hrs by MTT assay; assay type: functional, cell-based
ZR-75-1 = test: Antiproliferative activity against human ZR-75-1 cells assessed as reduction in cell growth measured after 5 days by Celltiter-Glo assay; assay type: functional, cell-based; conditions: ZR-75-1, 120 h
DU-145 = test: Antimitotic activity against human DU-145 cells assessed as reduction in cell proliferation incubated for 72 hrs by alamar blue based fluorescence spectrophotometric analysis; assay type: functional; conditions: DU-145, 72 h
[1] = Antiproliferative activity against human LNCaP/AR cells assessed as reduction in cell growth measured after 3 days by CellTiter-Glo assay; assay type: functional, cell-based; conditions: 72 h
Tubulin = test: Inhibition of microtubule (unknown origin) polymerization; assay type: protein-complex assay, Homo sapiens
4T1 = test: Antitumor activity against mouse 4T1 cells xenografted in BALB/c mouse model assessed as reduction in tumor growth at 100 microg/ml measured after 20 days relative to control; assay type: functional; design: scale not given: the % may be the effect or the level left; conditions: dose 100 µg/ml; time 20 day

Q: With `CC1(C)NC(=O)N(c2ccc([N+](=O)[O-])c(C(F)(F)F)c2)C1=O` [NILUTAMIDE] as the compound, how does the pIC50 (T47D) read?
A: Its pIC50 is 7.06.

Q: And the pIC50 (ZR-75-1)?
A: Its pIC50 is 7.12.

Q: With `C[C@]12CC[C@@H]3c4ccc(OC(=O)N(CCCl)CCCl)cc4CC[C@H]3[C@@H]1CC[C@@H]2OP(=O)(O)O` [ESTRAMUSTINE PHOSPHATE SODIUM] as the compound, how does the pIC50 (DU-145) read?
A: The pIC50 was 4.80.

Q: With `CC(O)(CS(=O)(=O)c1ccc(F)cc1)C(=O)Nc1ccc(C#N)c(C(F)(F)F)c1` (stereo unspecified) [BICALUTAMIDE] as the compound, how does the pIC50 [1] read?
A: The pIC50 was 6.80.

Q: With `CC(=O)O[C@@]12CO[C@@H]1C[C@H](O)[C@@]1(C)C(=O)[C@H](O)C3=C(C)[C@@H](OC(=O)[C@H](O)[C@@H](NC(=O)OC(C)(C)C)c4ccccc4)C[C@@](O)([C@@H](OC(=O)c4ccccc4)[C@H]21)C3(C)C` [DOCETAXEL ANHYDROUS] as the compound, how does the pIC50 (Tubulin) read?
A: The pIC50 was 6.70.

Q: For `CO[C@H]1C(=O)[C@]2(C)[C@@H](OC)C[C@H]3OC[C@@]3(OC(C)=O)[C@H]2[C@H](OC(=O)c2ccccc2)[C@]2(O)C[C@H](OC(=O)[C@H](O)[C@@H](NC(=O)OC(C)(C)C)c3ccccc3)C(C)=C1C2(C)C` [CABAZITAXEL], which Activity (4T1) is on record?
A: Its Activity is 56.2%.
